Experiment [1] has as its system E. coli ELZ4251. The experiment can be described thus: Antibacterial activity, MIC, multi-drug resistant clinical isolate (Table 3). In kind it is cell-based. The following applies: Escherichia coli. In outline:
(§1)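 MIC (μg/mL) read as lowest concentration with no macroscopically visible growth, determined by microbroth dilution.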

The subject of experiment [2] is E. coli ELZ4000. Described as above. Type of experiment: cell-based. The following applies: Escherichia coli, ELZ4000, read-out: MIC ELZ4000. An outline of the steps: as §1
In experiment [3] the test system is Staphylococcus aureus (S. aureus) 29213. The experiment can be described thus: Antibacterial activity, microbroth dilution MIC (Table 1). In kind it is cell-based. To be noted: microbroth dilution, Gram-positive S. aureus 29213, read-out: MIC, 29213. An outline of the steps: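 Values are MICs (μg/mL): the smallest drug amount at which macroscopically visible bacterial growth is absent under assay conditions, from a microdilution method in broth.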

Experiment [4] has as its system Escherichia coli (E. coli) BAS849. The description is as above. Type of experiment: cell-based. The following applies: microbroth dilution, super sensitive Gram-negative E. coli BAS849, read-out: MIC, BAS849. In outline: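 Read-out: visual absence of growth. The lowest concentration meeting this gives the MIC, expressed in μg/mL, with microbroth dilution as the method.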

Experiment [5] has as its system K. pneumoniae MXX1232. The experiment can be described thus: Antibacterial activity, MIC, resistant strain (Table 4). Type of experiment: cell-based. To be noted: Klebsiella pneumoniae, MXX1232; resistant K. pneumoniae MMX1232, multi-drug resistant clinical isolate; read-out: MIC, MMX1232. In outline:
(§2)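 Broth microdilution; MIC (μg/mL) = lowest concentration with no macroscopically visible growth. Resistant strains: multi-drug resistant clinical isolates.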

For experiment [6], the system named is A. baumannii MXX2240. The description is as above. In kind it is cell-based. To be noted: Acinetobacter baumannii, MXX2240; resistant A. baumannii MMX2240, multi-drug resistant clinical isolate; read-out: MIC, MMX2240. In outline:
as §2

For experiment [7], the system named is E. coli LZ3111. The experiment can be described thus: Antibacterial activity, MIC, quinolone resistant strain (Table 2). To be noted: Escherichia coli, LZ3111, read-out: MIC LZ3111. Type of experiment: cell-based. In outline: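 Broth microdilution. Read-out: MIC in μg/mL, taken as lowest concentration with no macroscopically visible growth.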
The subject of experiment [8] is Pseudomonas aeruginosa (P. aeruginosa) 27853. Briefly: Antibacterial activity, MIC (Table 5). Type of experiment: cell-based. To be noted: P. aeruginosa 27853, read-out: MIC, 27853. In outline:
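Microbroth dilution; MIC (μg/mL) = lowest concentration with no macroscopically visible growth.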

The subject of experiment [9] is Neisseria meningitidis (N. meningitidis) 13090. The experiment can be described thus: Antibacterial activity, MIC (Table 8). Type of experiment: cell-based. An outline of the steps:
(§3)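 Values are minimum inhibitory concentrations in μg/mL, read as the lowest compound concentration at which no growth is visible to the eye. Testing used a microbroth dilution format.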

In experiment [10] the test system is E. coli 25922. The experiment can be described thus: Antibacterial activity, microbroth dilution MIC (Table 1). Type of experiment: cell-based, Escherichia coli. To be noted: Escherichia coli; microbroth dilution; control Gram-negative E. coli 25922 strain; read-out: MIC, 25922. In outline:
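Growth inhibition by microbroth dilution. MIC = lowest μg/mL with no visible growth. Strain 25922 is the control Gram-negative; BAS849 is hypersensitive.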

Experiment [11] deals with Haemophilus influenzae (H. influenzae) 49247. Briefly: Antibacterial activity, MIC (Table 6). Type of experiment: cell-based. In outline: as §3
For experiment [12], the system named is Klebsiella pneumoniae (K. pneumoniae) 35657. Briefly: Antibacterial activity, MIC (Table 4). In kind it is cell-based. To be noted: K. pneumoniae 35657, read-out: MIC, 35657. In outline:
as §2

For experiment [13], the system named is Acinetobacter baumannii (A. baumannii) BAA747. The experiment can be described thus: Antibacterial activity, MIC (Table 4). To be noted: A. baumannii BAA747, read-out: MIC, BAA747. Type of experiment: cell-based. In outline: as §2
For experiment [14], the system named is Moraxella catarrhalis (M. catarrhalis) 25238. Briefly: Antibacterial activity, MIC (Table 7). Type of experiment: cell-based. In outline: as §3

In brackets after ≈: the same amount, converted by molar mass.

Consider `CCc1c(-c2ccc3c(c2)cc(CN2CCC[C@H](NC)C2)n3C)[nH]c(=O)c(C(=O)O)c1O` [Cpd 257, (S)-5-ethyl-4-hydroxy-6-(1-methyl-2-((3-(methylamino)piperidin-1-yl)methyl)-1H-indol-5-yl)-2-oxo-1,2-dihydropyridine-3-carboxylic acid], for which the MIC in [1] is 12.5 to 150 µg/mL (≈ 28.5 to 342 µM); in experiment [2] it was 12.5 to 150 µg/mL (≈ 28.5 to 342 µM); in experiment [3], 12.5 to 150 µg/mL (≈ 28.5 to 342 µM); in experiment [4], less than 1 µg/mL; in experiment [5] it was 12.5 to 150 µg/mL (≈ 28.5 to 342 µM); in experiment [6], 12.5 to 150 µg/mL (≈ 28.5 to 342 µM). In addition, the MIC is 3.5 to 12.5 µg/mL (≈ 7.98 to 28.5 µM) in experiment [7]; 12.5 to 150 µg/mL (≈ 28.5 to 342 µM) in [8]; 1 to 3.5 µg/mL (≈ 2.28 to 7.98 µM) in experiment [9]; 3.5 to 12.5 µg/mL (≈ 7.98 to 28.5 µM) in [10]; 3.5 to 12.5 µg/mL (≈ 7.98 to 28.5 µM) in [11]; 3.5 to 12.5 µg/mL (≈ 7.98 to 28.5 µM) in [12]. The MIC was in the range of 12.5 to 150 µg/mL (≈ 28.5 to 342 µM) in experiment [13] and 3.5 to 12.5 µg/mL (≈ 7.98 to 28.5 µM) in experiment [14].
As for `CCc1c(-c2ccc3c(c2)cc(CNC2(C)CC2)n3C)[nH]c(=O)c(C(=O)O)c1O` [Cpd 275, 5-ethyl-4-hydroxy-6-(1-methyl-2-((1-methylcyclopropylamino)methyl)-1H-indol-5-yl)-2-oxo-1,2-dihydropyridine-3-carboxylic acid], the MIC in [1] was 1 to 3.5 µg/mL (≈ 2.53 to 8.85 µM); in experiment [2] it was 1 to 3.5 µg/mL (≈ 2.53 to 8.85 µM); in [3], 3.5 to 12.5 µg/mL (≈ 8.85 to 31.6 µM); in experiment [4], less than 1 µg/mL; in experiment [5] it was 12.5 to 150 µg/mL (≈ 31.6 to 379 µM); in experiment [6], less than 1 µg/mL. Besides, the MIC in [7] is less than 1 µg/mL; in experiment [8] it was 3.5 to 12.5 µg/mL (≈ 8.85 to 31.6 µM); in experiment [9], less than 1 µg/mL; in experiment [10], less than 1 µg/mL; in experiment [11], less than 1 µg/mL; in experiment [12] it was 1 to 3.5 µg/mL (≈ 2.53 to 8.85 µM). Also, the MIC in experiment [13] and in [14] was less than 1 µg/mL each time.
For the compound `CCc1c(-c2ccc3c(c2)cc(CN2C[C@H]4CC[C@@H](N)[C@H]4C2)n3C)[nH]c(=O)c(C(=O)O)c1O` [Cpd 276, 6-(2-(((3aR,4R,6aS)-4-aminohexahydrocyclopenta[c]pyrrol-2(1H)-yl)methyl)-1-methyl-1H-indol-5-yl)-5-ethyl-4-hydroxy-2-oxo-1,2-dihydropyridine-3-carboxylic acid], the MIC in experiment [1] was 12.5 to 150 µg/mL (≈ 27.7 to 333 µM); in experiment [2], 12.5 to 150 µg/mL (≈ 27.7 to 333 µM); in [3], 3.5 to 12.5 µg/mL (≈ 7.77 to 27.7 µM); in experiment [4], less than 1 µg/mL; in experiment [5] it was 12.5 to 150 µg/mL (≈ 27.7 to 333 µM); in experiment [6], 12.5 to 150 µg/mL (≈ 27.7 to 333 µM). Further, the MIC in experiment [7] was 3.5 to 12.5 µg/mL (≈ 7.77 to 27.7 µM); in experiment [8] it was 12.5 to 150 µg/mL (≈ 27.7 to 333 µM); in [9], less than 1 µg/mL; in experiment [10], 1 to 3.5 µg/mL (≈ 2.22 to 7.77 µM); in experiment [11], 1 to 3.5 µg/mL (≈ 2.22 to 7.77 µM); in experiment [12], 1 to 3.5 µg/mL (≈ 2.22 to 7.77 µM). In addition, the MIC in [13] was in the range of 12.5 to 150 µg/mL (≈ 27.7 to 333 µM); in experiment [14] it was 1 to 3.5 µg/mL (≈ 2.22 to 7.77 µM).
On to `C#CCNCc1cc2cc(-c3[nH]c(=O)c(C(=O)O)c(O)c3CC)ccc2n1C.Cl` [Cpd 277, 5-ethyl-4-hydroxy-6-(1-methyl-2-((prop-2-ynylamino)methyl)-1H-indol-5-yl)-2-oxo-1,2-dihydropyridine-3-carboxylic acid hydrochloride], for which the MIC is 3.5 to 12.5 µg/mL in experiment [1]; 12.5 to 150 µg/mL in experiment [2]; 1 to 3.5 µg/mL in [3]; less than 1 µg/mL in experiment [4]; 12.5 to 150 µg/mL in experiment [5]; 12.5 to 150 µg/mL in experiment [6]. Besides, the MIC in experiment [7] was 1 to 3.5 µg/mL; in experiment [8], 12.5 to 150 µg/mL; in [9], less than 1 µg/mL; in [10] it was less than 1 µg/mL; in [11], less than 1 µg/mL; in experiment [12], 1 to 3.5 µg/mL. Besides, the MIC in [13] was 1 to 3.5 µg/mL; in experiment [14], less than 1 µg/mL.

The values above are taken from patent US9409905B2, “Antibacterial compounds and methods for use” (PTC THERAPEUTICS, INC., priority 2011, dated 2016).
